The source of these data is patent US20100113436A1, “DISPIRO TETRAOXANE COMPOUNDS AND THEIR USE IN THE TREATMENT OF MALARIA AND/OR CANCER” (priority 2006, published 2010).

By IC50 is commonly meant the concentration that gives 50% inhibition. As a reminder, the solubility is how much of the substance goes into solution per volume. Read a low solubility as little dissolved substance. The ED50 is the dose that gives a 50% effect, or the effect in half of the subjects. Low values mean greater potency, high ones weaker potency.

In brackets after ≈: the same amount, converted by molar mass. Read-outs that look alike come from different tables or passages of the source.

Data set [1] in a line: Timed iron degradation stability, FeBr2 in THF. The note with it: ferrous bromide/THF. In kind it is physicochemical. An excerpt:
The resulting residue was purified by flash column chromatography and the % recovery of starting endoperoxide calculated (Table 15).

Data set [2] has as its system 3D7 strain of Plasmodium falciparum. In words: In vitro antimalarial activity, 48-h [3H]-hypoxanthine incorporation assay. In kind it is cell-based. The protocol: The 3D7 strain of Plasmodium falciparum was used in this study. This strain is known to be […] Parasites were maintained in continuous culture using the method of Jensen and Trager^4. […] Stock drug solutions were prepared in 100% dimethylsulphoxide (DMSO) and diluted to the appropriate concentration using complete medium. Assays were performed in sterile 96-well microlitre plates, each plate contained 200 μl of parasite culture (2% parasitemia, 0.5% haematocrit) with or without 10 μl drug dilutions. Each drug was tested in triplicate and parasite growth compared to control wells (which constituted 100% parasite growth). […] IC50 values were calculated by interpolation of the probit transformation of the log dose-response curve.

Data set [3] can be described thus: Stability to other iron salts (FeSO4•7H2O, FeCl2•4H2O). In kind it is physicochemical. Particulars: further iron salts.
For data set [4], the system named is Plasmodium falciparum DD2. Nature of the data set: In vitro analysis versus strains of Plasmodium falciparum: DD2. In kind it is cell-based.
Data set [5] has as its system Plasmodium falciparum V1S. Nature of the data set: microbe, parasite or virus in culture. In kind it is cell-based.
The test system of data set [6] is Plasmodium falciparum GC03. Nature of the data set: In vitro analysis versus strains of Plasmodium falciparum: GC03. In kind it is cell-based.
For data set [7], the system named is Plasmodium falciparum PH3. In words: In vitro analysis versus strains of Plasmodium falciparum: PH3. In kind it is cell-based.
The test system of data set [8] is Plasmodium falciparum TM4. In words: In vitro analysis versus strains of Plasmodium falciparum: TM4. In kind it is cell-based.
Data set [9] concerns Plasmodium falciparum HB3. In words: In vitro analysis versus strains of Plasmodium falciparum: HB3. In kind it is cell-based.
Data set [10] deals with Plasmodium falciparum K1. Nature of the data set: In vitro analysis versus strains of Plasmodium falciparum: K1. In kind it is cell-based. The note with it: K1 strain.
Data set [11] concerns P. berghei ANKA. Nature of the data set: In vivo dose response screening against P. berghei ANKA. Particulars: P. berghei ANKA infected mice; Table 9; sigmoidal curve calculation.
Data set [12] in a line: physchem.
The test system of data set [13] is HepG2 Human hepatocyte carcinoma. In words: Cellular cytotoxicity screen, Resazurin reduction. In kind it is cell-based. The note with it: Hep2G. An excerpt: (§1) Values represent Tox 50 in μM. Cytotoxicity measured by Resazurin reduction.
(§2) Single full dose response curves generated using 10 independent drug concentrations. The 100 therapeutic index (TI) is the ration of the TOX 50 to the IC50 for the specific compound against the 3D7 P. falciparum isolate. The primary hepatocytes have demonstrable drug metabolising activity. The tetraoxane derivatives are remarkably non-toxic in these screens with in vitro TIs of between 5000 to 17000!.
Background: The colour change of resazurin is a common sign of viable cells or microbes.

Data set [14] has as its system Salmonella typhimurium TA1535/pSK1002. In words: Salmonella typhimurium SOS/umu genotoxicity assay. The text has this:
(§3) This assay is based on the ability of DNA damaging agents to induce the expression of the umu operon. The Salmonella strains have a plasmid pSK1002 which carries an umuC-lacZ fused gene that produces a hybrid protein with β-galactosidase activity and whose expression is controlled by the umu regulatory region.

For data set [15], the system named is Salmonella typhimurium NM2009. In words: Salmonella typhimurium SOS/umu genotoxicity assay.
Source text: as §3

Data set [16] has as its system P. berghei ANKA. In words: In vivo dose response screening against P. berghei ANKA. The note with it: Plasmodium berghei; P. berghei ANKA infected mice; Table 9. Further details: species or system mice. The procedure: Compound 29c, 29h and 291 were then subjected to dose response experiment against the P. berghei ANKA and the results are summarized in Table 7 below.

The test system of data set [17] is MRC-5 Embryonal lung, diploid. Nature of the data set: Cellular cytotoxicity screen, Resazurin reduction. In kind it is cell-based, Human.
Source text: as §1, §2

Data set [18] relates to Vero Kidney. In words: Cellular cytotoxicity screen, Resazurin reduction. In kind it is cell-based, African green monkey, Cercopithecus aethiops.
Source text: as §1, §2

In data set [19] the test system is H9c2(2-1) Myocardium, heart. Nature of the data set: Cellular cytotoxicity screen, Resazurin reduction. Particulars: H9c(2-1). In kind it is cell-based, rat.
Source text: as §1, §2

Data set [20] concerns L6 Sketal muscle myoblast. In words: Cellular cytotoxicity screen, Resazurin reduction. In kind it is cell-based, rat.
Source text: as §1, §2

[21] abbreviates: ratio TOX 50 to IC50 against 3D7 P. falciparum.

`O=S(=O)(c1ccccc1)N1CCC2(CC1)OOC1(OO2)C2CC3CC(C2)CC1C3` [Tetraoxane 39f] registered a degradation in data set [1] (after 4 h) of 10%. In data set [1] (after 48 h), this molecule yielded a turnover of 31%. Moreover, the concentration for half-maximal inhibition (IC50) in [2] (3D7, sulfonamide dispiro 1,2,4,5-tetraoxanes, Table 8, read-out: Mean IC50) stood at 8.1 nM. Further, in data set [3], the “degradation by iron salts known to degrade artemisinin and arteflene” value is given as “ineffective at degrading”.
Take `CCN(CC)CCCC(C)Nc1ccnc2cc(Cl)ccc12` (stereo not shown) [Chloroquine, reference compound]: the IC50 in [4] (DD2) came out at 80.5 nM; in data set [5] it was 83.7 nM; in data set [6], 8.1 nM; in data set [2] (3D7, read-out: Mean IC50) it was 8.5 nM; in [7], 72 nM; in data set [8], 91.3 nM. The IC50 in data set [9] (HB3) is 6.6 nM.
As to `CCN(CC)Cc1cc(Nc2ccnc3cc(Cl)ccc23)ccc1O` [AM, Amodiaquine, reference compound], the IC50 in data set [4] (DD2 strain, read-out: IC50) is 6.1 nM; in data set [5], 7.7 nM; in [6] (GC03 strain, read-out: IC50) it was 4.5 nM; in [7] (PH3 strain, read-out: IC50), 4.7 nM; in [8] (TM4 strain, read-out: IC50), 6.4 nM; in data set [9] (HB3 strain, read-out: IC50), 5.9 nM. In data set [10], this molecule displayed an IC50 of 10.2 nM.
As to `CCS(=O)(=O)N1CCC2(CC1)OOC1(OO2)C2CC3CC(C2)CC1C3` [Tetraoxane 39b], the ED90 in [11] is 35.48 mg/kg. Further, the solubility in data set [12] is 50 µM (≈ 18.7 µg/mL). For the same molecule, the IC50 came out at 3 nM in [4] (DD2 strain, read-out: IC50); 2.7 nM in data set [5]; 3 nM in [6] (GC03 strain, read-out: IC50); 5.55 nM in data set [2] (3D7, read-out: Mean IC50); 1.9 nM in data set [7] (PH3 strain, read-out: IC50); 2.4 nM in data set [8] (TM4 strain, read-out: IC50). In addition, the IC50 in data set [9] (HB3 strain, read-out: IC50) amounted to 3.8 nM; in data set [10] it was 3 nM. The “Tox 50” value was over 50 µM in data set [13]; over 50 µM in [17]; over 50 µM in [18]; over 50 µM in data set [19]; 31 µM in data set [20]. The “Theraputic Index (TI)” value was over 9090 in data set [13] (setting [21]); over 9090 in [17] (setting [21]); over 9090 in [18] (setting [21]); over 9090 in [19] (setting [21]); 5636 in [20] (setting [21]). Besides, the “MCE TA1535 (Maximum Co w/o effects on bacteria growth or β-galactosidase production)” value in data set [14] (Salmonella typhimurium) came to 50 µM. For the same molecule, the “genotoxicity result in SOS/umu assay” value in [14] (both strains TA1535/pSK1002 and NM2009, highest concentration tested 50 μM, absence and presence of S-9 mix) was “Negative”. Further, the “Max. Fold Increase” value was found to be 1.03 ± 0.07 fold in data set [14] (−S9) and 1.07 ± 0.03 fold in data set [15] (−S9). Also, the Potential genotox result in data set [14] (−S9) and in data set [15] (−S9) was “NEG” throughout. In [15] (Salmonella typhimurium), the “MCE NM2009 (Maximum Co w/o effects on bacteria growth or beta-galactosidase production)” value was determined as 50 µM. In data set [16], this molecule displayed an ED50 of 6.61 mg/kg.
